# Data as given in US10035780B2, “Quinazoline scaffold based compounds, pharmaceutical compositions and methods of use thereof” (TECHNION RESEARCH & DEVELOPMENT FOUNDATION LTD., priority 2014, dated 2018).
# “Also recorded” adds a separate entry of the source. Read-outs that look alike come from different tables or passages of the source.
# Key:
# R6-2 mice = assay type: in vivo; settings: chronic s.c. treatment
# From the text: R6-2 is a transgenic mouse model for Huntington Disease. Huntington Disease in humans is a hereditary neurodegenerative disease affecting motor performance and finally leading to death of the patients having the disease. R6-2 mice (˜120 CAG repeats B6CBA-Tg(HDexon1)62 Gpb/3J) mice were used for the experiments described below. For this purpose, mice obtained from the Jackson Laboratory (ME) were bred. In particular: males genotype: Hemizygous for Tg(HDexon1)62 Gpb, and females from the wildtype background strain B6CBAF1/J were bred according to the protocol of Jackson Laboratory. The male heterozygote offspring (R6-2 mice) were used for determining life span and motor activity, with and without drug treatment. Drug treatment consisted of daily (5 continuous days a week) subcutaneous injections of mice with 20 μl of: saline (sham control), vehicle DMSO (vehicle control), classic TSPO ligand PK 11195 (15 mg/kg), prior art Compound A (15 mg/kg), Compound 1 (15 mg/kg), and compound 1 (7.5 mg/kg). Drug treatment started on week 5 after birth. Quantities were used according to previous studies regarding TSPO ligands. […]
# FIG. 6. […] In particular, from week 9, when the first mice death occurred, until week 16, when all mice were dead, average distance covered in an open field, per session, per experimental group, per week was measured in cm. […]
# U118MG cells [1] = assay: Collapse of the mitochondrial membrane potential (ΔΨm) induced by glutamate; assay type: cell-based, human; settings: glutamate exposed cells
# From the text: (§1) Techniques and parameters assayed are summarized here: Total protein levels (Bradford. Anal Biochem. 1976; 72:248-54); TSPO ligand binding assays (Kugler et al. 2008; Levin et al. 2005; Danovich et al. Eur Neuropsychopharmacol. 2008; 18:24-33) cell death, including apoptosis and necrosis and related molecular biological processes (Soustiel et al. Neuropathol Appl Neurobiol. 2008; 34:412-23; Soustiel et al. Exp Neurol. 2008; 214:201-8; Zeno et al. 2009); mitochondrial transmembrane potential collapse (Chelli et al. Biochem Pharmacol. 2004; 68:125-34; Kugler et al. 2008; Zeno et al., 2009; Shargorodsky et al. Apoptosis. 2012; 17:647-65), reactive oxygen species (ROS) generation as a measure of oxidative stress (Veenman et al. 2008; Zeno et al. 2009); TSPO knockdown (Levin et al. 2005; Zeno et al. 2009); expression levels of mitochondrial TSPO and associated proteins (Veenman et al. 2002; Levin et al. 2005; Veenman et al. 2008); gene expression with RT-PCR and microarray analysis (Bode et al. 2012; Veenman et al. 2012). Parameters of inflammation, immune response, migration, and the cell cycle are also tested. All these approaches can also be applied for quality control of the compounds.
# Compound 1 is very effective at a concentration of 25 μM in this model (in order to achieve the same effect with the classical TSPO ligand PK 11195 a concentration of 50 μM has to be applied (data not shown).
# TSPO = TSPO (Homo sapiens (Human), UniProt P30536); assay type: binding; settings: displacement of [3H]PK 11195 from TSPO
# Sequence of TSPO (P30536 whole entry): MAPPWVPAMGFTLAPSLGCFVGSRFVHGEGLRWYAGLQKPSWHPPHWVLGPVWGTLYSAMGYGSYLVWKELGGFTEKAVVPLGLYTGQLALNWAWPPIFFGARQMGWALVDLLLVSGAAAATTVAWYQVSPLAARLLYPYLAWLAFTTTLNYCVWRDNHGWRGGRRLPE
# Method: Briefly, the assay utilizes radioactive standard ligand [^3H] PK 11195 (1-(2-chlorophenyl)-N-methyl-N-(1-methyl-propyl)-3 isoquinolinecarboxamide), and measures the ability of the compounds of the invention to displace standard ligand in binding to TSPO. Total radioactive binding was determined by measuring the radioactivity of the radioactive ligand-receptor complex, obtained in the reaction of radioactive standard with the TSPO. Radioactive standard and the examined compound were added to the TSPO and after some incubation time the radioactivity of the resulting ligand-receptor complexes was measured with the help of a […]. This radioactivity indicates the binding of the radioactive standard to TSPO. […] This can be expressed as the half maximal inhibitory concentration (IC50), which is a measure of the effectiveness of a compound in inhibiting biological or biochemical function, in this case inhibiting binding of standard radioactive ligand binding to the TSPO. A derivative of the IC50 is the Ki, which is the calculated binding affinity of the novel compound to the TSPO.
# Binding to TSPO was evaluated using a [^3H]PK 11195 radio-assay, as described above.
# Stability on storage = assay type: physicochemical; settings: several months of storage
# PC12 cells = assay: Differentiation of PC12 cells to neuron like cells, with glutamate; assay type: cell-based, rat; settings: 5 days
# Method: Cell cultures of various human glial type cell lines (T98G, U87MG, A172, U118MG), as well as human neuronal type cell lines SH-SY 5Y and Be(2)-C were used to test the new compounds. In addition, the rat glioma cell line C6 was used. PC12 cells originating from rats were used as another cell line displaying neuronal characteristics. The applicants also have produced, by genetic manipulation, a modified rat C6 glial cell strain and a modified human U118MG glial type cell strain, both under-expressing the TSPO, which allows to study TSPO specific effects, including of the compounds of the invention, which can be done according to methods described previously (Weisinger et al. Biochemistry. 2004; 43:12315-21; Levin et al. 2005; Zeno et al., 2009).
# Briefly, PC-12 cells were exposed to Cpd 1, in combination with glutamate, basically as described for the cell cultures of Example 1, and remained under that condition for 5 days.
# U118MG cells [2] = assay: ROS generation at mitochondrial levels induced by glutamate (NAO dye); assay type: cell-based, human
# From the text: as §1
# Next, the fluorescent dye 10-N-Nonyl-Acridine Orange (NAO) was applied to measure reactive oxygen species (ROS) generation at mitochondrial levels. […]
# [3] = Pharmacokinetic properties in the mouse after i.p. administration; assay type: in vivo
smiles,measurement,setting,value
"CCN(C)C(=O)Oc1nc(-c2ccccc2)nc2ccccc12 [Compound 1, 2-phenylquinazolin-4-yl ethyl(methyl)carbamate]",adverse effects,R6-2 mice,No adverse effects
same,concentration very effective in preventing ΔΨm collapse,U118MG cells [1],25 µM
same,prevention of ΔΨm collapse induced by glutamate,U118MG cells [1],prevents collapse
same,prevention of ΔΨm collapse induced by glutamate,U118MG cells [1]; listed as Cpd 1,prevented
same,Ki,TSPO,~60 nM
same,stability on storage,Stability on storage,stable over several months of storage
same,differentiation of PC12 cells toward neuronal type cells,PC12 cells,able to transform PC-12 cells in cell culture to neuron like cells; also recorded: can induce differentiation
same,ROS generation at mitochondrial levels induced by glutamate,U118MG cells [2],prevents ROS generation
same,ROS generation at mitochondrial levels induced by glutamate,U118MG cells [2]; listed as Cpd 1,attenuated
same,distribution to the brain,[3],quite quickly distributed to the brain
same,Kp,"[3]; brain, ip, read-out: Uptake ratio to the brain",0.2
same,half-life,"[3]; in vivo, ip",3.5 h
